The compounds below were run against T1, chymotrypsin-like (CT-L) proteasome activity (Homo sapiens, UniProt P20618+P28074) (assay: Proteasome enzymatic activity (tumor cell lysates), CT-L, OCI-AML-2). Conditions: OCI-AML-2, mean ± standard deviation.
T1 sequence (P28074 60-263): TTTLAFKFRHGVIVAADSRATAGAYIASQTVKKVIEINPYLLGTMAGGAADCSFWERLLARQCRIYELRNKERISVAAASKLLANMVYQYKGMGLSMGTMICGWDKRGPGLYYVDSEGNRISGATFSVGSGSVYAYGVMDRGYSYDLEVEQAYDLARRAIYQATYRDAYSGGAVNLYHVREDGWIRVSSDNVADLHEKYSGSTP
T1 sequence (P20618 29-241): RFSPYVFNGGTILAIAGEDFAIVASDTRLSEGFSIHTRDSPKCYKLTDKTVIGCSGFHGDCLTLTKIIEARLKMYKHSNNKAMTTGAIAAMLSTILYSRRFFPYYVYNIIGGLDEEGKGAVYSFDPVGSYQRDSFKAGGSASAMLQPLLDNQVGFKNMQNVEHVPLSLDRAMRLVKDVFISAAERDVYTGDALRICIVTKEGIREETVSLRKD
Type: biochemical
Method: Human multiple myeloma cell lines 8226, H929, JJN3, KMH11, KMS11, KMS18, LP1, MM1S, OPM2 and U266 were grown in Iscove modified Dulbecco's medium (IMDM). Human leukemia cell lines K562, OCI-AML2 and U937 were cultured in RPMI-1640 medium. Primary peripheral blood mononuclear cells were isolated from multiple myeloma patients by Ficoll density gradient centrifugation and bone marrow aspirates were obtained from multiple myeloma patients at the Princess Margaret Cancer Centre of the University Health Network (UHN; Toronto, ON, Canada). Primary cells were cultured in IMDM. The collection and use of human tissue for this study was approved by the UHN institutional ethics review board. All cell culture media were obtained from the Ontario Cancer Institute Tissue Culture Media Facility (Toronto, ON, Canada) and were supplemented with 10% fetal calf serum, […] (Hyclone, Logan, Utah). All cells were grown in a humidified incubator at 37° C. with 5% CO2.
Cells were harvested by centrifugation at 1,200 rpm at room temperature. Cell pellets were washed with PBS (phosphate buffered saline) and lysed with assay lysis buffer (50 mM HEPES (N-2-hydroxyethylpiperazine-N′-2-ethanesulfonic acid), pH 7.5; 150 mM NaCl; 1% Triton X-100; 2 mM ATP). Cell lysates were incubated on ice for 30 minutes, mixed by vortex every 5 minutes, and then centrifuged at 12,000 g for 10 minutes. The supernatant was transferred to a 96-well plate. For each assay, 10 μg of total protein were incubated for 1 hour at 37° C. with increasing concentrations (1 nM to 10 μM) of test compound diluted in assay buffer (50 mM tris-HCl (tris(hydroxymethyl)aminomethane-HCl), pH 7.5; 150 mM NaCl). DMSO alone was used as a control in every assay plate. After incubation, a specific fluorogenic proteasome substrate was added to each assay reaction at a final concentration of 40 μM in a total volume of 100 μL. N-Succinyl-Leu-Leu-Val-Tyr-7-amino-4-methylcoumarin (Suc-Leu-Leu-Val-Tyr-AMC) was used for measuring chymotrypsin-like (CT-L) activity, t-butoxycarbonyl-Leu-Arg-Arg-7-amino-4-methylcoumarin (Boc-Leu-Arg-Arg-AMC) for trypsin-like (T-L) activity, and benzyloxycarbonyl-L-leucyl-L-leucyl-L-glutamyl-7-amino-4-methylcoumarin (Z-Leu-Leu-Glu-AMC) for caspase-like (C-L) activity. The excitation wavelength was set at 360 nm and the fluorescence emission wavelength of AMC was detected at 460 nm. The fluorescence of free AMC released during the enzymatic reaction was measured with a SpectraMax M5 fluorescent spectrophotometric plate reader (Molecular Devices, Sunnyvale, Calif.). AMC release rate was measured at 37° C. in a kinetic mode, recording every 5 minutes for 30 minutes. Experiments were performed in triplicate and repeated at least twice.
Table 8 summarizes the data of representative compounds of Formula I for cell viability and CT-L proteasome activity with OCI-AML-2 and KMS-11 cell lines.
Compound `CC(C)C[C@H](NC(=O)[C@H](COC(F)F)NC(=O)CN1CCOCC1)C(=O)N[C@@H](COC(F)F)C(=O)N[C@@H](CC(C)C)C(=O)[C@@]1(C)CO1` [Example 1, (2S)—N-[(1S)-1-(difluoromethoxymethyl)-2-[[(1S)-3-methyl-1-[(2R)-2-methyloxirane-2-carbonyl]butyl]amino]-2-oxo-ethyl]-2-[[(2S)-3-(difluoromethoxy)-2-[(2-morpholinoacetyl)amino]propanoyl]amino]-4-methyl-pentanamide] has an IC50 of 39 ± 1.24 nM. In the case of `CC(C)C[C@H](NC(=O)[C@H](COC(F)F)NC(=O)CN1CCOCC1)C(=O)N[C@@H](Cc1ccccc1)C(=O)N[C@@H](CC(C)C)C(=O)[C@@]1(C)CO1` [Example 2, (2S)-N-[(1S)-1-benzyl-2-[[(1S)-3-methyl-1-[(2R)-2-methyloxirane-2-carbonyl]butyl]-amino]-2-oxo-ethyl]-2-[[(2S)-3-(difluoromethoxy)-2-[(2-morpholinoacetyl)amino]propanoyl]amino]-4-methyl-pentanamide], the IC50 is reported as 41.2 ± 3.19 nM. For `CC(C)C[C@H](NC(=O)[C@H](COC(F)F)NC(=O)CN1CCOCC1)C(=O)N[C@@H](Cc1ccccc1)C(=O)N[C@@H](Cc1ccccc1)C(=O)[C@@]1(C)CO1` [Example 3, (2S)-N-[(1S)-1-benzyl-2-[[(1S)-1-benzyl-2-[(2R)-2-methyloxiran-2-yl]-2-oxo-ethyl]amino]-2-oxo-ethyl]-2-[[(2S)-3-(difluoromethoxy)-2-[(2-morpholinoacetyl)-amino]propanoyl]amino]-4-methyl-pentan-amide], the IC50 was 30 ± 2.44 nM. `CC(C)C[C@H](NC(=O)[C@H](COC(F)F)NC(=O)CN1CCOCC1)C(=O)N[C@@H](COC(F)F)C(=O)N[C@@H](Cc1ccccc1)C(=O)[C@@]1(C)CO1` [Example 4, (2S)-N-[(1S)-2-[[(1S)-1-benzyl-2-[(2R)-2-methyloxiran-2-yl]-2-oxo-ethyl]amino]-1-(difluoromethoxymethyl)-2-oxo-ethyl]-2-[[(2S)-3-(difluoromethoxy)-2-[(2-mor-pholinoacetyl)amino]propanoyl]amino]-4 methyl-pentanamide] was tested, and the IC50 was 20.9 ± 0.91 nM. Compound `CC(C)C[C@H](NC(=O)[C@H](COC(F)F)NC(=O)[C@H](COC(F)F)NC(=O)[C@H](CCc1ccccc1)NC(=O)CN1CCOCC1)C(=O)[C@@]1(C)CO1` [Example 7, (2S)-N-[(1S)-1-(difluoromethoxymethyl)-2-[[(1S)-1-(difluoromethoxymethyl)-2-[[(1S)-3-methyl-1-[(2R)-2-methyloxirane-2-carbo-nyl]butyl]amino]-2-oxo-ethyl]amino]-2-oxo-ethyl]-2-[(2-morpholinoacetyl)amino]-4-phenyl-butanamide] has an IC50 of 24.7 ± 9.6 nM. `CC(C)C[C@H](NC(=O)[C@H](Cc1ccccc1)NC(=O)[C@H](COC(F)F)NC(=O)[C@H](COC(F)F)NC(=O)CN1CCOCC1)C(=O)[C@@]1(C)CO1` [Example 11, (2S)-2-[[(2S)-3-(difluoromethoxy)-2-[[(2S)-3-(difluoromethoxy)-2-[(2-morpholinoacetyl)-amino]propanoyl]amino]propanoyl]amino]-N-[(1S)-3-methyl-1-[(2R)-2-methyloxirane-2-carbonyl]butyl]-3-phenyl-propanamide] gave an IC50 of 30.5 ± 3.9 nM. `CC(C)C[C@H](NC(=O)[C@H](COC(F)F)NC(=O)[C@H](COC(F)F)NC(=O)[C@H](COC(F)F)NC(=O)CN1CCOCC1)C(=O)[C@@]1(C)CO1` [Example 17, (2S)-3-(difluoromethoxy)-N-[(1S)-1-(difluoromethoxymethyl)-2-[[(1S)-1-(difluoro-methoxymethyl)-2-[[(1S)-3-methyl-1-[(2R)-2-methyloxirane-2-carbonyl]butyl]amino]-2-oxo-ethyl]amino]-2-oxo-ethyl]-2-[(2-mor-pholinoacetyl)amino]-propanamide] gave an IC50 of 58.3 ± 3.11 nM.

Source: US20150218212A1, “FLUORINATED EPOXYKETONE-BASED TETRAPEPTIDE COMPOUNDS AND USES THEREOF AS PROTEASOME INHIBITORS” (FLUORINOV PHARMA INC., priority 2012, published 2015)
